Earlier results in patent US20100055044A1, “Ruthenium compounds and compositions” (priority 2008, published 2010).
Like-named read-outs stand apart in the source and are kept apart here.

Test system: Alveolar adenocarcinoma, breast adenocarcinoma, uterine carcinosarcoma, and endometrial carcinoma cells
Settings: 8 days

For `O=[O+][O-]` [ozone], the cell growth inhibition (0.3 ppm ozone in air) is given as 40%, the cell growth inhibition (0.5 ppm ozone in air) is given as 60% and the cell growth inhibition (0.8 ppm ozone in air, cancerous cells) is given as 90%.
